Results: US20020151526A1, “Bile-acid prodrugs of L-dopa and their use in the sustained treatment of parkinsonism” (priority 2000, published 2002)

Legend:
Human IBAT Transporter = target: T1, Human IBAT Transporter (Homo sapiens, UniProt Q12908); assay: Electrogenic transport in Xenopus oocytes expressing IBAT; assay type: cell-based; conditions: relative to glycodeoxycholate, test compound 100 μM
T1 sequence (Q12908 1-348): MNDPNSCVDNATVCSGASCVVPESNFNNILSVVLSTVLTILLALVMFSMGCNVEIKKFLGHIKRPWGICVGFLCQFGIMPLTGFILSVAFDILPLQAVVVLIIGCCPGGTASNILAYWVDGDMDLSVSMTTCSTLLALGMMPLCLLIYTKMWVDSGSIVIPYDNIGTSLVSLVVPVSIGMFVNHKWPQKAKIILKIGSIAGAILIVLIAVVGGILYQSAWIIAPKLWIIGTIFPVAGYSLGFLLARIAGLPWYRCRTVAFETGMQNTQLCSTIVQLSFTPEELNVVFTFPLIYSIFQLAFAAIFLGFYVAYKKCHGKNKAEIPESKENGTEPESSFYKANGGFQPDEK
Protocol: Human IBAT Transporter cDNAs were subcloned into a modified pGEM plasmid that contains 5′ and 3′ untranslated sequences from the Xenopus β-actin gene. These sequences increase RNA stability and protein expression. Plasmid cDNA was linearized and used as template for in vitro transcription (Epicentre Technologies transcription kit, 4:1 methylated:non-methylated GTP).
Xenopus oocyte isolation. Xenopus laevis frogs were anesthetized by immersion in Tricaine ([…] in deionized water) for 15 min. Oocytes were removed and digested in frog ringer solution (90 mM NaCl, 2 mM KCl, 1 mM MgCl2, 10 mM NaHEPES, pH 7.45, no CaCl2) with 1 mg/mL collagenase (Worthington Type 3) for 80-100 min with shaking. The oocytes were washed 6 times, and the buffer changed to frog ringer solution containing CaCl2(1.8 mM). Remaining follicle cells were removed if necessary. Cells were incubated at 16° C., and each oocyte injected with […] RNA in […] solution.
Electrophysiology measurements. Transport currents were measured 2-14 days after injection, using a standard two-electrode electrophysiology set-up (Geneclamp 500 amplifier, Digidata 1320/PCLAMP software and ADInstruments hardware and software were used for signal acquisition). Electrodes ([…]) were microfabricated using a Sutter Instrument puller and filled with 3M KCl. The bath was directly grounded (transporter currents were less than 0.3 μA). Bath flow was controlled by an automated perfusion system (ALA Scientific Instruments, solenoid valves).
For transporter pharmacology, oocytes were clamped at −60 to −90 mV, and continuous current measurements acquired using PowerLab Software and an ADInstruments digitizer. Current signals were lowpass filtered at 20 Hz and acquired at 4-8 Hz. All bath and drug-containing solutions were frog ringers solution containing CaCl2. Drugs were applied for 10-30 seconds until the induced current reached a new steady-state level, followed by a control solution until baseline currents returned to levels that preceded drug application. […]

[1] = cited from earlier work; for half-life: human, in vivo

In the case of C[C@H](CCC(=O)N[C@@H](Cc1ccc2oc(=O)oc2c1)C(=O)O)[C@H]1CC[C@H]2[C@@H]3[C@H](O)C[C@@H]4C[C@H](O)CC[C@]4(C)[C@H]3C[C@H](O)[C@]12C [(104), Cholyl-Dopa-(3,4-carbonate)], the “% Max. (GDC) response” value (Human IBAT Transporter) is reported as 25%.
With CC(CCC(=O)NC(Cc1ccc(O)c(O)c1)C(=O)O)C1CCC2C3C(O)CC4CC(O)CCC4(C)C3CC(O)C12C (stereo not shown) [(101), Cholyl-DOPA] the “% Max. (GDC) response” value (Human IBAT Transporter) was 0%.
For N[C@@H](Cc1ccc(O)c(O)c1)C(=O)O [levodopa, L-dihydroxyphenylalanine], the “oral bioavailability of levodopa” value ([1]; from conventional formulations of levodopa/carbidopa (e.g. Sinemet)) is listed as 84-99%, the half-life [1] is listed as roughly 2 h and the “administered dose reaching the CNS intact” value ([1]; in patients) is listed as “less than 1%”.
For “Cholyl-DOPA-(4-pivaloyloxymethyl) [(102)]”, the “% Max. (GDC) response” value (Human IBAT Transporter) was 104%.
In the case of C[C@@](Cc1ccc(O)c(O)c1)(NN)C(=O)O [carbidopa], the half-life [1] is given as roughly 2 h.
